Where two headings read alike, the source gives them in different places. Marks after values point to notes of the source that are not given here.
What was measured:
[1] = clinical; conditions: human, in vivo
[2] = human, in vivo
[3] = Steady-state pharmacokinetics of cediranib given with chemotherapy; type: in vivo, human; conditions: for Css,max / AUC: geometric mean (CV%); for AUC / Tmax: human, plasma, oral; for AUC: AUCss; for Tmax: median (range)
[4] = tested on: patients with a broad range of advanced solid tumors; conditions: cited from earlier work
[5] = tested on: patients with advanced CRC; conditions: previous phase I study; cited from earlier work
[6] = tested on: patients with advanced solid tumors; assay: Dose-limiting toxicities and maximum tolerated dose; type: in vivo, human; conditions: for MTD of cediranib: once-daily oral
[7] = ref Trial 2171IL0001, cited from earlier work; for Tmax: median (range)
[8] = tested on: patients with advanced solid tumors; assay: Safety and tolerability: adverse events graded by NCI CTC version 3.0; type: in vivo, human
[9] = tested on: advanced solid tumors; assay: Tumor response evaluation; type: in vivo, human
[10] = Chemotherapy pharmacokinetics alone; conditions: for AUC / Cmax: alone (cycle 1, day 1), geometric mean (CV%); for Change in the geometric mean chemotherapy pharmacokinetic parameters when given alone or in combination with cediranib: limited pharmacokinetic data
[11] = 20 mg, Arm 1 (with mFOLFOX6), cediranib 20 mg, n=5
[12] = 20 mg, Arm 3A (with irinotecan), cediranib 20 mg, n=5
[13] = 20 mg, Arm 3B (with irinotecan and cetuximab), cediranib 20 mg, n=3
[14] = 30 mg, Arm 2 (with docetaxel), cediranib 30 mg, n=8
[15] = all arms, cediranib with chemotherapy

CCc1c2c(nc3ccc(OC(=O)N4CCC(N5CCCCC5)CC4)cc13)-c1cc3c(c(=O)n1C2)COC(=O)[C@]3(O)CC [Irinotecan]
Cmax ([1]; Cmax): 3290 ng/mL | Cmax [2]: 3040 (18.3) ng/mL

CC(=O)O[C@@]12CO[C@@H]1C[C@H](O)[C@@]1(C)C(=O)[C@H](O)C3=C(C)[C@@H](OC(=O)[C@H](O)[C@@H](NC(=O)OC(C)(C)C)c4ccccc4)C[C@@](O)([C@@H](OC(=O)c4ccccc4)[C@H]21)C3(C)C [Docetaxel]
AUC ([1]; AUC): 3770 ng·h/mL

COc1cc2c(Oc3ccc4[nH]c(C)cc4c3F)ncnc2cc1OCCCN1CCCC1 [cediranib, Cediranib]
Css,max ([3]; Arm 1 (with mFOLFOX6), cediranib 20 mg, n=5): 65.3 (86.2) ng/mL | Css,max ([3]; Arm 2 (with docetaxel), cediranib 30 mg, n=8): 62.5 (53.3) ng/mL | Css,max ([3]; Arm 3A (with irinotecan), cediranib 20 mg, n=5): 76.0 (57.6) ng/mL | Css,max ([3]; Arm 3B (with irinotecan and cetuximab), cediranib 20 mg, n=3): 50.9 (126) ng/mL | Css,max ([3]; Arm 4 (with pemetrexed), cediranib 30 mg, n=4): 74.9 (31.6) ng/mL | AUC [3, 11]: 986 ng·h/mL | AUC [3, 12]: 1010 ng·h/mL | AUC [3, 13]: 668 ng·h/mL | Tmax [3, 11]: 4 h | Tmax [3, 12]: 2.1 h | Tmax [3, 13]: 4 h | AUC [3, 14]: 1100 ng·h/mL | Tmax [3, 14]: 5 h | Doses at which cediranib monotherapy was generally well tolerated [4]: ≤ 45 mg/day | Recommended phase II dose in combination with mFOLFOX6 [5]: 30 mg/day | MTD of cediranib ([6]; in combination with docetaxel (arm 2)): 30 mg | MTD of cediranib according to the protocol definition ([6]; in combination with irinotecan and cetuximab): 20 mg | MTD of cediranib ([6]; in combination with irinotecan): 20 mg | MTD of cediranib ([6]; in combination with mFOLFOX6): 20 mg | MTD of cediranib ([6]; in combination with pemetrexed (arm 4)): 30 mg | Css,max ([7]; single-agent cediranib 20 mg, multiple once-daily oral doses, n=11, geometric mean (CV%)): 66.6 (52.9) ng/mL | AUCss ([7]; single-agent cediranib 20 mg, n=11, geometric mean (CV%)): 774 (51.6) ng/mL•h | Tmax ([7]; single-agent cediranib 20 mg, n=11): 3.0 (2.0, 6.4) h | AUCss ([7]; single-agent cediranib 30 mg, n=12, geometric mean (CV%)): 741 (48.7) ng/mL•h | Tmax ([7]; single-agent cediranib 30 mg, n=12): 2.1 (1.0, 4.0) h | Serious adverse events of hypertension ([8]; across all arms): Three | CTC grade 1 hypertension ([8]; across all arms, n=59): 21 patients | CTC grade 3 hypertension ([8]; across all arms, n=59): three | CTC grade 3 leukopenia ([8]; across all arms, n=59): nine | CTC grade 3 neutropenia ([8]; across all arms, n=59): 11 patients | CTC grade 3 or 4 diarrhea of any causality ([8]; across all arms, n=59): 12 patients | CTC grade 3 or 4 fatigue of any causality ([8]; across all arms, n=59): 16 patients | CTC grade 3 or 4 leukopenia of any causality ([8]; across all arms, n=59): 13 patients | CTC grade 3 or 4 neutropenia of any causality ([8]; across all arms, n=59): 19 patients | CTC grade 4 leukopenia ([8]; across all arms, n=59): four | CTC grade 4 neutropenia ([8]; across all arms, n=59): 8 patients | Serious adverse event: fatigue ([8]; across all arms, number (%)): 16 (27%) patients | Serious adverse event: leukopenia ([8]; across all arms, number (%)): 12 (20%) patients | Serious adverse event: neutropenia ([8]; across all arms, number (%)): 18 (30%) patients | Patients discontinued due to diarrhea ([8]; across the study): three | Patients discontinued due to fatigue ([8]; across the study): two | Abdominal pain, any grade (%), Total (n=59) [8, 15]: 16 (27%) | Alopecia, any grade (%), Total (n=59) [8, 15]: 15 (25%) | Anorexia, any grade (%), Total (n=59) [8, 15]: 25 (42%) | Decreased weight, any grade (%), Total (n=59) [8, 15]: 21 (36%) | Dehydration, any grade (%), Total (n=59) [8, 15]: 19 (32%) | Dyspnea, any grade (%), Total (n=59) [8, 15]: 18 (31%) | Headache, any grade (%), Total (n=59) [8, 15]: 16 (27%) | Leukopenia, any grade (%), Total (n=59) [8, 15]: 20 (34%) | Nausea, any grade (%), Total (n=59) [8, 15]: 36 (61%) | Neutropenia, any grade (%), Total (n=59) [8, 15]: 27 (46%) | Vomiting, any grade (%), Total (n=59) [8, 15]: 30 (51%) | Adverse events of proteinuria (all CTC grade 1 or 2) ([8]; all study arms except arm 4): Seven | Increases in blood TSH above the normal range (> 5 mU/L) ([8]; overall): 26 patients | Neutrophil counts of less than 1×10^9/L ([8]; overall, n=59): Fourteen | Patients discontinuing due to adverse events ([8]; total, number (%)): 12 (20%) patients | Partial tumor responses, all arms ([9]; 46 patients with efficacy data, 35 evaluable by RECIST): four | Median duration of treatment of the four patients with partial response ([9]; range 154-384): 319 days

CCc1c2c(nc3ccc(O)cc13)-c1cc3c(c(=O)n1C2)COC(=O)[C@]3(O)CC [SN38]
AUC ([10]; Arm 3A): 595 (53.5) ng/mL•h | Cmax ([10]; Arm 3A): 35.4 (50.1) ng/mL | AUC ([10]; Arm 3B (with cetuximab)): 482 (22.3) ng/mL•h | Cmax ([10]; Arm 3B (with cetuximab)): 29.1 (21.0) ng/mL | Change in the geometric mean chemotherapy pharmacokinetic parameters when given alone or in combination with cediranib [10]: < 2 fold

O=C1[O][Pt]2([NH][C@@H]3CCCC[C@H]3[NH]2)[O]C1=O [Oxaliplatin, reference compound]
Change in the geometric mean chemotherapy pharmacokinetic parameters when given alone or in combination with cediranib [10]: < 2 fold

Nc1nc2[nH]cc(CCc3ccc(C(=O)N[C@@H](CCC(=O)O)C(=O)O)cc3)c2c(=O)[nH]1 [Pemetrexed]
AUC [2]: 295 (37.7)^e u.g.h/mL | Cmax [2]: 180 (14.2)^e u.g/mL

O=c1[nH]cc(F)c(=O)[nH]1 [5-FU]
Cmax [2]: 544 (72.9) ng/mL
